Data published in patent US12416052B2, “Capturing, concentrating, and detecting microbes in a sample using magnetic ionic liquids and recombinase polymerase amplification” (priority 2019, dated 2025).

What was measured:
[1] = test system: S. typhimurium ATCC 14028; test: Exposure of cells and plating on non-selective (TSA) and selective (BSA) agar (viability, injury, toxicity); type: cell-based, Salmonella enterica
Method: To examine whether exposure time to the Ni(II) MIL affected cell viability, MIL-based whole-cell extraction was performed using the Ni(II) MIL, and cell-enriched back-extraction media were enumerated at 0, 5, 10 and 15 min on both TSA and BSA. To evaluate toxicity of the [EMIM^+][SCN^−] IL, one milliliter of diluted S. typhimurium ATCC 14028 cell suspension was added to a 4-mL screw cap glass vial. A 5% (vol/vol) or 50% (vol/vol) aqueous solution of 1-ethyl-3-methylimidazolium thiocyanate (“[EMIM^+][SCN^−]”) (IoLiTec, Tuscaloosa, AL, USA) was added and mixed by vortexing for 30 s. Aliquots were enumerated at 0, 5, 10 and 15 min using TSA and BSA.
One milliliter of diluted S. typhimurium ATCC 14028 cell suspension was added to a 4-mL screw cap glass vial. Fifteen microliters of either the Dy(III) MIL or 2-10 μL of 100 mM DyCh solution or 10 mg of the ammonium tetra(hexafluoroaceto)dysprosium salt (15) ([NH4^+][Dy(hfacac)4^−]) (“Dy(III) ammonium salt”) was added and dispersed by vortex agitation for 30 s. Aliquots of the Dy(III) MIL- or Dy(III) ammonium salt-exposed cell suspension were enumerated using square TSA or BSA plates (BD).
Because culture-based methods depend on sample preparation steps that preserve bacterial viability, potential deleterious cytotoxic effects imparted by MIL extractants must be considered. To begin our further study of MIL-bacterial interactions, we selected S. typhimurium ATCC 14028 as a model gram-negative pathogen and the Ni(II) MIL as extractant. Briefly, a 1 mL aliquot of TSB was inoculated with 1×10^5 CFU mL^−1 of bacteria and spiked with 15 μL of the Ni(II) MIL, and the general schematic for MIL-based extraction and recovery followed as shown in FIG. 7B. After extraction, 10 μL aliquots of the back-extraction solution were enumerated at 0, 5, 10 and 15 min using TSA and BSA. Average CFU counts were compared to a standard that was not exposed to the Ni(II) MIL. […] To better understand the data in FIG. 8, statistical analyses of Ni(II) MIL capture precision and CFU count variation as a function of MIL exposure time were performed. Variation in MIL capture may stem from inherent randomness of MIL dispersion and coalescence behaviors.
The effects of 5% or 50% (vol/vol) aqueous solutions of the [EMIM^+][SCN^−] IL on the viability of the cells were also evaluated. Average CFU counts were compared to a standard not exposed to [EMIM^+][SCN^−]. In our hands, when S. typhimurium was exposed to 50% (vol/vol) solutions of [EMIM^+][SCN^−], no recovery was observed on either TSA or BSA after 5 min of exposure.
To gain further insight into this phenomenon, the effect of free elemental dysprosium was evaluated by subjecting the cells to 0.1 mM and 1.0 mM solutions of DyCl3. The cells were exposed to the metal salt solutions for 30 s and subsequently plated on selective and non-selective media.
While the metal did show cytotoxicity, it cannot be completely responsible for the Dy(III) MIL's effect on the cells, as no flocculation was seen and growth was still observed. Since both the Ni(II) and the Dy(III) MILs contain identical cations ([P6,6,6,14^+]), the role of the anion structure was evaluated. The anion of the Dy(III) MIL contains one additional hexafluoroacetylacetonate ligand than the Ni(II) MIL (FIG. 7), making the coordination geometry of the two complexes different. To test the effects of the anion structure, cells were subjected to 10 mg of the Dy(III) ammonium salt. After a 30 second vortex, similar flocculation was observed as when the cells were exposed to the native Dy(III) MIL.

[2] = test system: Salmonella enterica subsp. enterica ser. Typhimurium ATCC 14028; type: cell-based; details: Example 2; 2×T, 1×NaCl back-extraction medium
Method: A universal schematic for MIL-based cell extraction is depicted in FIG. 7B. A 1 mL volume of diluted cell suspension was added to a flat-bottomed 4-mL screw cap glass vial. Fifteen microliters of either the Ni(II) or Dy(III) MIL was added and dispersed into microdroplets by vortex agitation for 30 s. The aqueous phase was decanted following dispersive extraction, and the MIL was subjected to a brief wash step using 1 mL of nuclease-free water (Integrated DNA Technologies, Coralville, IA, USA) to ensure adequate removal of loosely or incidentally bound cells. After washing, release of viable cells from the MIL extraction phase was carried out using a “back-extraction” step accomplished through addition of 1 mL of an ionically-rich nutritive medium comprised of 20 g L^−1 tryptone and 10 g L^−1 NaCl, followed by a 120 s vortex step. After back-extraction, aliquots of the cell-enriched back-extraction medium were enumerated using the track dilution method using 100×100 mm square, gridded TSA, BSA, CA or VRBGA plates.
Following back-extraction, aliquots of the cell-enriched back-extraction medium were serially diluted in 0.1% peptone water and a 10 μL aliquot of each dilution was applied to a separate lane on square plates containing an appropriate agar medium. The plates were then tilted at an approximately 80° angle for 15 min to allow the droplets to travel toward the opposite end of the plate. The plates were incubated for 24 h at 37° C. (TSA, VRBGA), for 48 h at 37° C. (BSA) or for 24 h at 37° C. (CA). Colonies were counted and colony forming units (CFU) were determined. The enrichment factor (EF) for MIL-based extraction was calculated using Equation 1, where CMIL represents the concentration of bacteria in suspension following extraction using the MIL and CS is the initial concentration of bacteria in the sample.
Because culture-based methods depend on sample preparation steps that preserve bacterial viability, potential deleterious cytotoxic effects imparted by MIL extractants must be considered. To begin our further study of MIL-bacterial interactions, we selected S. typhimurium ATCC 14028 as a model gram-negative pathogen and the Ni(II) MIL as extractant.

[3] = Density of MIL; type: physicochemical
[4] = test system: Salmonella typhimurium; details: plated to a selective agar; cited from earlier work
[5] = test system: E. coli; details: thermal (120° C.-150° C.) disintegration; cited from earlier work
[6] = test system: Salmonella typhimurium; details: thermal (120° C.-150° C.) disintegration; cited from earlier work

In the case of `[Cl][Dy]([Cl])[Cl]` [DyCl3, reference compound], the “viable counts on TSA and BSA” value ([1]; 0.1 mM and 1.0 mM solutions, 30 s exposure) is reported as “substantially lower counts were observed on BSA than TSA”.

With `CCCCCCCCCCCCCC[P+](CCCCCC)(CCCCCC)CCCCCC.O=C([CH-]C(=O)C(F)(F)F)C(F)(F)F.O=C([CH-]C(=O)C(F)(F)F)C(F)(F)F.O=C([CH-]C(=O)C(F)(F)F)C(F)(F)F.[Co+2]` [Co(II) MIL] the enrichment factors [2] was “approximately 12” and the density [3] was about 1.3 g/mL.

In the case of `CCn1cc[n+](C)c1.N#C[S-]` [[EMIM^+][SCN^−], 1-ethyl-3-methylimidazolium thiocyanate, reference compound], the “recovery on TSA or BSA” value ([1]; 50% (vol/vol) solution, after 5 min of exposure) is given as “no recovery”, the “recovery on TSA or BSA” value ([1]; exposed as originally described for IL-based extraction from foods (Mester et al., 2010)) is given as “no recovery” and the “inoculated S. typhimurium recovered after IL-mediated matrix lysis” value [4] is given as 34-45%.

For “1-butyl-1-methylpyrrolidinium bis(trifluoromethylsulfonyl)imide [[BMPyr^+][Ntf2^−]]”, the cell disruption [5] is given as “completely disrupted” and the cell disruption [6] is given as “completely disrupted”.

With `O=C([CH-]C(=O)C(F)(F)F)C(F)(F)F.O=C([CH-]C(=O)C(F)(F)F)C(F)(F)F.O=C([CH-]C(=O)C(F)(F)F)C(F)(F)F.O=C([CH-]C(=O)C(F)(F)F)C(F)(F)F.[Dy+3].[NH4+]` [Dy(III) ammonium salt, ammonium tetra(hexafluoroaceto)dysprosium salt, reference compound] the “growth on TSA or BSA” value ([1]; 10 mg, 30 second vortex, 24 h incubation) was “no growth was seen on either TSA or BSA”.

In the case of `CCCCCCCCCCCCCC[P+](CCCCCC)(CCCCCC)CCCCCC.O=C([CH-]C(=O)C(F)(F)F)C(F)(F)F.O=C([CH-]C(=O)C(F)(F)F)C(F)(F)F.O=C([CH-]C(=O)C(F)(F)F)C(F)(F)F.O=C([CH-]C(=O)C(F)(F)F)C(F)(F)F.[Dy+3]` [Dy(III) MIL, [P6,6,6,14^+][Dy(III) (hfacac)4^−]], the “flocculation and growth after plating” value ([1]; 15 μL added to cell suspension, 30 s vortex) is reported as “extensive flocculation and no growth after plating”.
